Details: topical or ocular, 5 microgram per mL
Protocol: In Vitro Liver Microsomal Stability Assay
Liver microsomal stability assays are conducted at 1 mg per mL liver microsome protein with an NADPH-generating system in 2% NaHCO3 (2.2 mM NADPH, 25.6 mM glucose 6-phosphate, 6 units per mL glucose 6-phosphate dehydrogenase and 3.3 mM MgCl2). Test compounds are prepared as solutions in 20% acetonitrile-water, and added to the assay mixture (final assay concentration 5 microgram per mL) and incubated at 37° C. Final concentration of acetonitrile in the assay should be <1%. Aliquots (50 μL) are taken out at times 0, 15, 30, 45, and 60 min, and diluted with ice cold acetonitrile (200 μL) to stop the reactions. Samples are centrifuged at 12,000 RPM for 10 min to precipitate proteins. Supernatants are transferred to microcentrifuge tubes and stored for LC/MS/MS analysis of the degradation half-life of the test compounds.

increase in the degradation half-life as compared to non-isotopically enriched metoprolol	SMILES
10-30%	[2H]C([2H])(Cc1ccc(OCC(O)CNC(C)C)cc1)OC (stereo not shown) [d2-metoprolol, d2-1-Isopropylamino-3-[4-(2-methoxy-ethyl)-phenoxy]-propan-2-ol]
10-30%	[2H]C([2H])([2H])OCCc1ccc(OCC(O)CNC(C)C)cc1 (stereo not shown) [d3-metoprolol, d3-1-Isopropylamino-3-[4-(2-methoxy-ethyl)-phenoxy]-propan-2-ol]
10-30%	[2H]C([2H])([2H])OC([2H])([2H])Cc1ccc(OCC(O)CNC(C)C)cc1 (stereo not shown) [d5-metoprolol, d5-1-Isopropylamino-3-[4-(2-methoxy-ethyl)-phenoxy]-propan-2-ol]
10-30%	[2H]C([2H])([2H])OC([2H])([2H])Cc1ccc(OC([2H])([2H])C([2H])(O)C([2H])([2H])NC(C([2H])([2H])[2H])C([2H])([2H])[2H])cc1 (stereo not shown) [d16-metoprolol, d16-1-Isopropylamino-3-[4-(2-methoxy-ethyl)-phenoxy]-propan-2-ol]
